Results: paper PMC12722920, “Pharmacokinetics and pharmacodynamics of cannabigerol (CBG) in the C57BL/6Crl mouse” (Frontiers in Pharmacology, 2025)

How the values were obtained:
C57BL/6Crl mice [1] = test: Cannabinoid tetrad: internal body temperature (rectal thermometer); type: in vivo; conditions: for ED50: Mus musculus, iv
C57BL/6Crl mice [2] = test: Cannabinoid tetrad: nociception by tail-flick latency; type: in vivo; conditions: for ED50: Mus musculus, iv
C57BL/6Crl mice [3] = test: Open field test (OFT): locomotion and anxiety-like behaviour; type: in vivo
Experimental: Catalepsy was assessed in the ring holding assay; mice were positioned with their forepaws grasping onto a 0.5 cm thick ring clamp elevated 5 cm above the testing surface. The duration of time while the ring was held was recorded in seconds, with each trial terminated if the mouse’s forepaw released from the bar, upon turning of the head or body, or after 60 s of immobility. Catalepsy was evaluated three times consecutively, and the average time spent holding the bar was reported as a percent of the maximum possible effect (% MPE, up to 60 s). Internal body temperature was measured via a rectal thermometer. Nociception was determined by assessing tail-flick latency, where mice were restrained with their tails placed ∼1 cm into 52 °C ± 2 °C water. The time (sec) until the tail was removed was measured, with observations ending at 20 s and represented as a % MPE. Locomotion and anxiety-like behaviour were assessed in the OFT. Mice were placed in an open space (90 cm × 90 cm) and recorded for 5 min. Total distance travelled (cm), velocity (cm/sec), time in the centre quadrant (sec), and central quadrant entries were measured with EthoVision XT (Noldus Information Technology Inc., Leesburg, VA).
In Phase I (Part B), after determining the timepoint at which blood CBG concentrations were highest for each respective route of administration, the timing for each measure in the tetrad was adjusted. An assessment was conducted in a new cohort consisting of both male and female mice (n = 4 per sex per route) receiving a dose of 10 mg/kg of CBG via i.v., i.p., or p.o. routes. For those administered with i.v. CBG, the timing was: catalepsy at 5 min, body temperature at 15 min, tail-flick latency at 20 min, and OFT at 25 min post-injection. For i.p. CBG, measurements were taken at 20 min for catalepsy, 25 min for body temperature, 30 min for tail-flick latency, and 35 min for OFT post-injection. For p.o. CBG, data collection was scheduled as follows: catalepsy at 170 min, body temperature at 175 min, tail-flick latency at 180 min, and OFT at 185 min post-injection.

CB1R = tested on: CB1R; set-up: method as in earlier work; conditions: ref El-Alfy et al., 2010; Navarro et al., 2018; Zagzoog et al., 2020; cited from earlier work
CD-1 mice = tested on: CD-1 mice; set-up: method as in Schwarz et al., 2024; conditions: 100 mg/kg i.p., not at 10 or 320 mg/kg, ref Schwarz et al., 2024, cited from earlier work
male Sprague Dawley rats = tested on: male Sprague Dawley rats; set-up: method as in Jenkins et al., 2023; conditions: acute oral 100 mg/kg, 30 min post-administration; ref Jenkins et al., 2023; cited from earlier work
humans = tested on: humans; set-up: method as in Cuttler et al., 2024; conditions: oral 20 mg CBG; ref Cuttler et al., 2024; cited from earlier work
male mice = tested on: male mice; set-up: method as in Zagzoog et al., 2020; conditions: i.p., 15 min post-injection; ref Zagzoog et al., 2020; cited from earlier work
[4] = Phase II blood concentration 10 min after i.v. administration (HPLC-MS/MS)
[5] = 1, 3, 10 or 30 mg/kg i.v., male and female mice

CCCCCc1cc(O)c(C/C=C(\C)CCC=C(C)C)c(O)c1 [CBG, cannabigerol]
body temperature vs vehicle (C57BL/6Crl mice [1]; 10 mg/kg i.p. or p.o., male mice, 15 min post-injection): significant increase in temperature | body temperature vs vehicle (C57BL/6Crl mice [1]; 10 mg/kg, all routes (i.v. 15 min, i.p. 25 min, p.o. 175 min), male and female mice): decreased body temperature compared to vehicle | hypothermia, dose-response (C57BL/6Crl mice [1]; [5]): produced a modest effect but only at the highest dose tested, 30 mg/kg | ED50 (C57BL/6Crl mice [1]; 0.25 h, both sexes, 15 min post-administration): > 30 mg/kg | ED50 (C57BL/6Crl mice [1]; males): > 30 mg/kg | effect on body temperature, dose-response (C57BL/6Crl mice [1]; i.v., Phase II): did not alter body temperature | anti-nociceptive response in tail-flick vs vehicle (C57BL/6Crl mice [2]; 10 mg/kg i.v., 20 min post-administration, male and female mice): produced an anti-nociceptive response | tail-flick latency (C57BL/6Crl mice [2]; 10 mg/kg i.v., i.p. and p.o., male mice, 20 min post-injection): did not alter tail-flick latency | anti-nociception, dose-response (C57BL/6Crl mice [2]; [5]): produced a modest effect but only at the highest dose tested, 30 mg/kg | anti-nociceptive effect (tail-flick) (C57BL/6Crl mice [2]; CBG given i.p.): 10% ± 0.83% | ED50 (C57BL/6Crl mice [2]; 20 min, i.v., both sexes, 20 min post-administration, read-out: ED50 tail-flick latency): > 30 mg/kg | ED50 (C57BL/6Crl mice [2]; both sexes, read-out: ED50 tail-flick latency, estimate exceeding the dose range (square brackets)): > 30 mg/kg | ED50 (C57BL/6Crl mice [2]; males, read-out: ED50 tail-flick latency): > 30 mg/kg | intoxication relative to THC, anti-nociception (C57BL/6Crl mice [2]; accounting for blood concentrations measured at 10 min, i.v.): 3.6% | Intoxication ratio, tail-flick latency (C57BL/6Crl mice [2]; both sexes): 0.036 | Intoxication ratio, tail-flick latency (C57BL/6Crl mice [2]; females): 0.038 | ED50 tail-flick latency (C57BL/6Crl mice [2]; i.v., females): > 30 mg/kg | OFT time in the center, CBG compared to THC (C57BL/6Crl mice [3]; 10 mg/kg i.p. or p.o.): spent significantly more time in the center | OFT velocity (C57BL/6Crl mice [3]; 10 mg/kg i.p., CBG 35 min post-administration): reduced velocity compared to both i.p. vehicle and THC administration | OFT total distance travelled (C57BL/6Crl mice [3]; 10 mg/kg i.p., compared to i.p. THC): total distance travelled was reduced | OFT entries to the center (C57BL/6Crl mice [3]; 10 mg/kg i.p., compared to vehicle): entered the center fewer times than their vehicle-treated counterparts | OFT velocity (C57BL/6Crl mice [3]; 10 mg/kg i.v., 25 min post-administration, male and female mice): reduced velocity compared to vehicle treatment | OFT total distance travelled (C57BL/6Crl mice [3]; 10 mg/kg i.v., compared to i.v. vehicle): total distance travelled was reduced | OFT time in the center (C57BL/6Crl mice [3]; 10 mg/kg i.v., compared to the vehicle): Time in the center was reduced | OFT entries to the center (C57BL/6Crl mice [3]; 10 mg/kg i.v., compared to vehicle): entered the center fewer times than their vehicle-treated counterparts | OFT entries to the center (C57BL/6Crl mice [3]; 10 mg/kg p.o.): entered the center of the OFT more times than mice given CBG i.v. | OFT velocity (C57BL/6Crl mice [3]; 10 mg/kg p.o., CBG 185 min post-administration): reduced velocity compared to p.o. THC | CB1R affinity relative to THC (CB1R): approximately one-twentieth | anti-nociception (CD-1 mice; 20 min post-injection): anti-nociception | hypothermia (CD-1 mice; 30 min post-injection): resulted in hypothermia | anxiolytic effects (male Sprague Dawley rats): did not produce anxiolytic effects | reduction in anxiety levels from baseline (humans): 26.5% | anti-nociceptive effect (male mice): evoked an anti-nociceptive effect | mean blood concentration of CBG relative to THC ([4]; 10 mg/kg i.v., higher than THC): approximately 5 times | concentration at 10 min ([4]; both, C57BL/6Crl, mouse, whole blood, intravenous, 10 mg/kg): 2700 ng/mL
